According to patent US5750754A, “Heterocyclic compounds” (Zeneca Limited, priority 1993, dated 1998):
Where a name gives a salt, the structure may show the parent alone.

Tests used:
[1] = molecular target: T1, purified human platelet fibrinogen receptor (GPIIb/IIIa) (Homo sapiens, UniProt P05106+P08514); test: Test (b): GPIIb/IIIa ELISA, inhibition of biotinylated fibrinogen binding; conditions: purified human platelet GPIIb/IIIa, ELISA; for IC50: read-out: Test (b): pIC50 (-log(IC50)), 50% inhibition of biotinylated fibrinogen binding to GPIIb/IIIa (converted)
T1 construct: is isolated from human platelet lysates; from tissue
T1 sequence (P08514 32-887 limits assumed): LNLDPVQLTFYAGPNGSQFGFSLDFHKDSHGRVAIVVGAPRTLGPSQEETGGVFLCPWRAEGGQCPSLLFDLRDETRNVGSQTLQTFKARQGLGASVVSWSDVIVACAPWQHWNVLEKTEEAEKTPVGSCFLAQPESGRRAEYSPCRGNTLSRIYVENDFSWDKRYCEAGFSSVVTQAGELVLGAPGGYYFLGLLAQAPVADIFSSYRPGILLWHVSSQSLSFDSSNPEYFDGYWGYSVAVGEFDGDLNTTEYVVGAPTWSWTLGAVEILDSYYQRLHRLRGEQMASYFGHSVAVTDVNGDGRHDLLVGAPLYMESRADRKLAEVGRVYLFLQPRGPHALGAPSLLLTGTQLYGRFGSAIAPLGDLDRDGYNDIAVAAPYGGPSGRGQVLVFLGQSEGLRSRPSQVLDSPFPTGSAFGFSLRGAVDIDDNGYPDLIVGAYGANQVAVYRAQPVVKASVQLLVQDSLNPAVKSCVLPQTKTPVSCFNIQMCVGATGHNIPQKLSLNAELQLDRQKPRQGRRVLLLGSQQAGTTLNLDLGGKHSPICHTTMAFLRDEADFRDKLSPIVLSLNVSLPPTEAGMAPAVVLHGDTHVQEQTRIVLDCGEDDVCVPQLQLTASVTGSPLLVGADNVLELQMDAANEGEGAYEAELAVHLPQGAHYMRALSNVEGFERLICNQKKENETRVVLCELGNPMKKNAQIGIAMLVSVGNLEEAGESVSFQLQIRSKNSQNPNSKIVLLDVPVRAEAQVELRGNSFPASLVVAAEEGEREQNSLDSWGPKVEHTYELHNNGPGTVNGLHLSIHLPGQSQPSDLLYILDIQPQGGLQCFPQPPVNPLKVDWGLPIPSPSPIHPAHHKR
T1 sequence (P08514 891-1039 limits assumed): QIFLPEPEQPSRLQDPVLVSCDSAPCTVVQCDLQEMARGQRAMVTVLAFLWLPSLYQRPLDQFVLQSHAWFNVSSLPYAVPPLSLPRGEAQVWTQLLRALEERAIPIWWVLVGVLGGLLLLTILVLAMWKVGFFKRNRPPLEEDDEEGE
T1 sequence (P05106 27-788): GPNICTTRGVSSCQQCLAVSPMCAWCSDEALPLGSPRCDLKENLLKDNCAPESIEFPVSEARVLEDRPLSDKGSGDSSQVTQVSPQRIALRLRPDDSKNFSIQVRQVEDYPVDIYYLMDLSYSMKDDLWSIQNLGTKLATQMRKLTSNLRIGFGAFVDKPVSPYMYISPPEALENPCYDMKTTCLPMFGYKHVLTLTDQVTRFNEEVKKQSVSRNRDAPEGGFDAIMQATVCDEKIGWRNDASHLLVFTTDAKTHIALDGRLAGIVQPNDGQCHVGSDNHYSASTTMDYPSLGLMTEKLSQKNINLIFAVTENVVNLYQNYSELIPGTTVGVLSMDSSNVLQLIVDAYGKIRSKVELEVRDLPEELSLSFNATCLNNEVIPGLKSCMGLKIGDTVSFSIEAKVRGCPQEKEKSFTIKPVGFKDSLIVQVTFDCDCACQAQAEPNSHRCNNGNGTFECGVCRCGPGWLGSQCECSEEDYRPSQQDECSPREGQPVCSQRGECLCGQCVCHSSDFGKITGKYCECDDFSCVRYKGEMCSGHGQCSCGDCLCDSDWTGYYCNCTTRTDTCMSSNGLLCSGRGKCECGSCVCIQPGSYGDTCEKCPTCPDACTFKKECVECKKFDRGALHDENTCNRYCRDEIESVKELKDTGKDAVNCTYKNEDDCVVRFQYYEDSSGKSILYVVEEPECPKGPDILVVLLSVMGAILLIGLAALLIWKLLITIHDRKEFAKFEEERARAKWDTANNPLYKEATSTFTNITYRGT
Protocol: (i) Preparation of human platelet lysates.
Platelet rich plasma (PRP) is harvested by centrifugation (1000 rpm, 15 mins) of whole blood anticoaoulated with acid citrate dextrose (trisodium citrate 85 mM, citric acid 70 mM, d-glucose 110 mM) 1 part to 6 parts blood. Prostacyclin (PGI2, 1 μM) is added to the PRP before centrifugation (2400 pm, 15 mins) and the resulting pellet is resuspended in modified Tyrodes' solution (NaCl 130 mM, KCl 26 mM, NaHCO3 12 mM, NaH2 PO4 0.5 mM, MgCl2 1 mM, CaCl2 20 mM, Glucose 12 mM, HEPES 5 mM) containing bovine serum albumin 3.5 g/L, PGI2 1 μM and hirudin 0.5 U/ml. The platelet suspension is centrifuged (2400 rpm, 15 mins) and the resultant pellet resuspended in 500 μl of lysis buffer (octyl glucoside 50 mM, HEPES 10 mM, NaCl 150 mM, CaCl2 1 mM, MgCl2 1 mM, PMSF 1 mM, NEM 10 mM, leupeptin 0.1 mM), agitated at 4° C. for 15 minutes then centrifuged at 24000 rpm, 15 mins. The supernatant is stored at 4° C. and the pellet re-suspended in 500 μl of lysis buffer. The centrifugation process is repeated a further 3 tlimes, the pooled supernatants being stored at -70° C.
(ii) Receptor purification.
GP Ilb/Ila is isolated from human platelet lysates using a 2 ml peptide (KYGRGDS) coupled CNBr activated Sepharose affinity column. A 1.5 ml volume of platelet lysate is placed on the column and allowed to stand overnight at 4° C. Buffer (30 mls, octyl gluicoside 25 mM, HEPES 10 mM, NaCl 150 mM, CaCl2 1 mM, MgCl2 1 mM, PMSF 1 mM, NEM 10 mM, leupeptin 0.1 mM) is passed through the column and 2 ml fractions are collected throughout. GPIIb/IIIa is eluted with 12 mls of buffer containing HHLGGAKQAGDV (2 mg/ml, pH 7.5), the column is washed using 4 mls buffer and the remaining GPIIb/IIIa eluted using 12 mls buffer containing GRGDSPG (1 mg/ml pH 7.5). The column is finally washed using 20 mls of buffer and can be used for up to three such preparations. Fractions containing FGPIIb/IIIa are identified using gel electrophoresis and immunoblotting, pooled and stored at -70° C.
96 well microtitre plates are coated with 100 μl purified human platelet fibrinogen receptor (GPIIb/IIIa) diluted in coating buffer (Tris-HCl 20 mM, NaCl 150 mM, CaCl2 1 mM, pH 7.4) and left overnight at 4° C. The plates are washed using washing buffer (Tris-HCl 50 mM, NaCl 100 mM, CaCl2 2 mM, pH 7.4) and non-specific binding, blocked by the addition of 200 μl 2% BSA (2 hours, 30° C.). The plates are washed prior to incubation (2 hours, 30° C.) with 100 μl biotinylated fibrinogen ([…]) containing either vehicle or test compound. The plates are washed, incubated with streptavidin (5 μg/ml, 1 hour, ambient temperature), then washed again before the addition of 100 μl biotinylated horse radish peroxidase (0.1 μg/ml, 1 hour, ambient temperature). The plates are then washed and equal volumes of peroxidase substrate (3, 5, tetramethyl benzidine 0.4 g/l) and H2 O2 (0.02%) are mixed together immediately before addition of 150 μl to each well. Colour is allowed to develop for 10-15 mins before optical densities are read at 650 nm.
The concentration of compound required to cause 50% inhibition of biotinylated fibrinogen binding, is calculated and expressed as a pIC50 (-log(IC50)).

[2] = molecular target: T2, human, citrated, platelet-rich plasma (Homo sapiens, UniProt P05106+P08514); test: Test (a): inhibition of ADP stimulated platelet aggregation (Born); format: cell-based; conditions: ADP induced aggregation of human platelet-rich plasma; read-out: Test (a): pA2 value indicating potency of platelet aggregation inhibition (converted)
T2 construct: aggregating human, citrated, platelet-rich plasma; endogenous in cells; host or cells: human platelets in citrated platelet-rich plasma
T2 sequence (P08514 32-887 limits assumed): as the sequence (P08514 32-887 limits assumed) above
T2 sequence (P08514 891-1039 limits assumed): as the sequence (P08514 891-1039 limits assumed) above
T2 sequence (P05106 27-788): as the sequence (P05106 27-788) above
Excerpt: (i) aggregating human, citrated, platelet-rich plasma by addition of adenosine diphosphate so as to generate a dose-response curve;
(ii) generating a dose-response curve for ADP stimulated platelet aggregation in the presence of increasing amounts of a test compound (generally in the range 10-^5 M to 10-^10 M); and
(iii) calculating a pA2 value indicating potency of platelet aggregation inhibition for the test compound, averaged over several concentrations, from the calculated 50% response value for ADP aggregation in the presence and absence of the test compound.

CCCCS(=O)(=O)NC(Cc1ccc(CN2CCN(c3ccncc3)CC2)cc1)C(=O)O (racemic) [Example 68, 2-RS-(n-Butylsulphonylamino)-3-[4-(4-pyridyl)piperazin-1-ylmethylene]phenylpropionic acid]
IC50 [1]: 12.6 nM | Kb [2]: 316 nM

CCCCS(=O)(=O)NC(CC1CCN(C(=O)CN2CCN(c3ccncc3)CC2)CC1)C(=O)OCC (racemic) [Example 110, Ethyl 2RS-(n-butylsulphonylamino)-3-[1-[2-[4-(4-pyridyl)piperazin-1yl]-acetyl]piperidin-4-yl]propanoate]
IC50 [1]: > 100000 nM | Kb [2]: 6310 nM

CCCCS(=O)(=O)NC(CC1CCN(C(=O)CN2CCN(c3ccncc3)CC2)CC1)C(=O)O (racemic) [Example 111]
IC50 [1]: 6310 nM | Kb [2]: 5010 nM

COC(=O)COc1ccc(C(=O)C(C)CN2CCN(c3ccncc3)CC2)cc1 (racemic) [Example 177, RS Methyl 4-[3-[4-(4-pyridyl)piperazin-1-yl]-2-methylpropanoyl]-phenoxyacetate]
IC50 [1]: 79400 nM | Kb [2]: 1580 nM

C=CC(COc1ccc(N2CCN(c3ccncc3)CC2)cc1)CC(=O)O (racemic) [Example 204, RS-4-[4-[4-(4-Pyridyl)piperazin-1-yl]phenoxy]-3-vinylbutyric acid, sodium salt]
IC50 [1]: 1.26 nM | Kb [2]: 79.4 nM

COC(=O)C(CCOc1ccc(N2CCN(c3ccncc3)CC2)cc1)NC(=O)OC(C)(C)C (racemic) [Example 211, RS Methyl 2-t-butoxycarbonylamino-4-[4-[4-(4-pyridyl)piperazine-1-yl]phenoxy]butyrat]
IC50 [1]: 158 nM | Kb [2]: 1580 nM

COC(=O)C(N)CCOc1ccc(N2CCN(c3ccncc3)CC2)cc1 (racemic) [Example 213, RS Methyl 2-amino-4-[4-[4-(4-pyridyl)piperazin-1-yl]phenoxy]butyrate]
IC50 [1]: 501 nM | Kb [2]: 200 nM

O=C(O)CO[C@@H]1CCN(C(=O)CN2CCN(c3ccncc3)CC2)C[C@H]1OCC(=O)O (relative stereo) [Example 105]
IC50 [1]: 251 nM | Kb [2]: 251 nM

O=C(O)COc1ccc(C(=O)CN2CCN(c3ccncc3)CC2)cc1 [Example 2]
Test (b): pIC50 (-log(IC50)), 50% inhibition of biotinylated fibrinogen binding to GPIIb/IIIa [1]: 7.6 | IC50 [1]: 25.1 nM | Kb [2]: 50.1 to 79.4 nM

COC(=O)COc1ccc(C(=O)CN2CCN(c3ccncc3)CC2)cc1OCC(=O)OC [Example 3]
IC50 [1]: 251 nM | Kb [2]: 501 nM

O=C(O)COc1ccc(C(=O)CN2CCN(c3ccncc3)CC2)cc1OCC(=O)O [Example 4, 2,2'-[4-[2-[4-(4-Pyridyl)piperazin-1-yl]acetyl]phenylene-1,2-dioxy]diaceticacid]
IC50 [1]: 0.794 nM | Kb [2]: 1.26 nM

COC(=O)COc1ccc(C(=O)CN2CCN(c3ccncc3)CC2)cc1OC [Example 5, Methyl 4-[2-[4-(4-pyridyl)piperazin-1-yl]acetyl]-2-methoxyphenoxyacetate]
IC50 [1]: 1000 nM | Kb [2]: 1000 nM

COc1cc(C(=O)CN2CCN(c3ccncc3)CC2)ccc1OCC(=O)O [Example 6, 4-[2-[4-(4-Pyridyl)piperazin-1-yl]acetyl]-2-methoxyphenoxyacetic acid]
IC50 [1]: 25.1 nM | Kb [2]: 63.1 nM

COC(=O)COc1ccc(C(=O)CCN2CCN(c3ccncc3)CC2)cc1 [Example 7, Methyl 4-[3-[4-(4-pyridyl)piperazin-1-yl]propanoyl]phenoxyacetate]
IC50 [1]: 3980 to 6310 nM | Kb [2]: 501 nM

O=C(O)COc1ccc(C(=O)CCN2CCN(c3ccncc3)CC2)cc1 [Example 8, 4-[3-[4-(4-Pyridyl)piperazin-1-yl]propanoyl]phenoxyacetic acid]
IC50 [1]: 79.4 nM | Kb [2]: 316 nM

COC(=O)CSc1ccc(C(=O)CN2CCN(c3ccncc3)CC2)cc1 [Example 9, Methyl 4-[2-[4-(4-pyridyl)piperazin-1-yl]acetyl]phenylthioacetate]
IC50 [1]: 50100 nM | Kb [2]: 12600 nM

O=C(O)CSc1ccc(C(=O)CN2CCN(c3ccncc3)CC2)cc1 [Example 10]
IC50 [1]: 1000 nM | Kb [2]: 2000 nM

COC(=O)CCc1ccc(C(=O)CN2CCN(c3ccncc3)CC2)cc1 [Example 11, Methyl 3-[4-[2-[4-(4-pyridyl)piperazin-1-yl]acetyl]phenyl]propionate]
IC50 [1]: 39800 nM | Kb [2]: 2000 nM

O=C(O)CCc1ccc(C(=O)CN2CCN(c3ccncc3)CC2)cc1 [Example 12, 3-[4-[2-[4-(4-Pyridyl)piperazin-1-yl]acetyl]phenyl]propionic acid]
IC50 [1]: 63.1 nM | Kb [2]: 501 nM

COC(=O)Cc1ccc(C(=O)CN2CCN(c3ccncc3)CC2)cc1 [Example 13, Methyl 4-[2-[4-(4-pyridyl)piperazin-1-yl]acetyl]phenylacetate]
IC50 [1]: 15800 to 39800 nM | Kb [2]: 5010 nM

CCOC(=O)Cc1ccc(C(=O)CN2CCN(c3ccncc3)CC2)cc1 [Example 14, Ethyl 4-[2-[4-(4-pyridyl)piperazin-1-yl]acetyl]phenylacetate]
IC50 [1]: > 100000 nM | Kb [2]: 7940 nM

O=C(O)Cc1ccc(C(=O)CN2CCN(c3ccncc3)CC2)cc1 [Example 15, 4-[2-[4-(4-Pyridyl)piperazin-1-yl]acetyl]phenylacetic acid, trifluoroacetate salt]
IC50 [1]: 1260 nM | Kb [2]: 2510 nM

Cc1ccc(S(=O)(=O)Nc2ccc(C(=O)CN3CCN(c4ccncc4)CC3)cc2)cc1 [Example 19, N-[4-[2-[4-(4-Pyridyl)piperazin-1-yl]acetyl]phenyl-4-methylphenyl]-sulphonamide]
IC50 [1]: 2000 nM | Kb [2]: 2510 nM

CCCCS(=O)(=O)Nc1ccc(C(=O)CN2CCN(c3ccncc3)CC2)cc1 [Example 20, N-4-[2-[4-(4-Pyridyl)piperazin-1-yl]acetyl]phenyl-1-butanesulphonamide]
IC50 [1]: 15800 nM | Kb [2]: 5010 nM

Cc1ccc(S(=O)(=O)NCc2ccc(C(=O)CN3CCN(c4ccncc4)CC3)cc2)cc1 [Example 21, N-[4-[2-[4-(4-Pyridyl)piperazin-1-yl]acetyl]phenyl]methyl-4-methylphenylsulphonamide]
IC50 [1]: 158 to 501 nM | Kb [2]: 63.1 to 158 nM

CCCCS(=O)(=O)NCc1ccc(C(=O)CN2CCN(c3ccncc3)CC2)cc1 [Example 22, N-[4-[2-[4-(4-Pyridyl)piperazin-1-yl]acetyl]phenyl]methyl-1-butanesulphonamide]
IC50 [1]: 3980 nM | Kb [2]: 126 to 200 nM

Cc1ccc(S(=O)(=O)NCCc2ccc(C(=O)CN3CCN(c4ccncc4)CC3)cc2)cc1 [Example 23, N-[2-[4-[2-[4-(4-Pyridyl)piperazin-1-yl]acetyl]phenyl]ethyl]-4-methylphenylsulphonamide]
IC50 [1]: 6310 to 31600 nM | Kb [2]: 1000 nM

CCCCS(=O)(=O)NCCc1ccc(C(=O)CN2CCN(c3ccncc3)CC2)cc1 [Example 24, N-[2-[4-[2-[4-(4-Pyridyl)piperazin-1-yl]acetyl]phenyl]ethyl]-1-butanesulphonamide]
IC50 [1]: 31600 nM | Kb [2]: 2000 nM
